Results: patent US6541194B2, “Method for the detection of the presence of chemical species known to inhibit a chemiluminescent reaction” (Neogen Corporation, priority 2000, dated 2003)

Target: T1, luciferase (Photinus pyralis, UniProt P08659)
T1 construct: purchased Analytical Luminescent Laboratories (ALL), Sparks, Md. #2005
Test: luciferin-luciferase chemiluminescent reaction with reactant mixture dried on reagent disc
Type: biochemical
Description: As discussed above, the inherent chemical and mechanical stability of the polymeric material is ideally suited for use as a medium on which to load the chemiluminescent reagents for the practice of the present invention. A number of commercial enterprises market luciferin-luciferase reagent kits for use in chemiluminescent reaction assays. One that the inventors have found to be particularly well suited for the practice of the present invention is the “Firelight®” luciferin-luciferase reagent kit provided by Analytical Luminescent Laboratories (ALL) of Sparks, Md. […] This provides for a greater intensity of luminescence, and faster reaction kinetics.
In the preparation of the reagent discs 48, the reactant concentrate is loaded, preferably drop-wise, onto the Merocel® CF50, obtained in pre-sterilized sheets. The coated sheets are then dried at ambient temperatures under a vacuum, and the reagent discs are cut from the sheets in an appropriate size and shape. Alternatively, discs may be cut first and then loaded with appropriate reagent solution. When loaded in such fashion with the reagent mixture, reagent discs, approximately 6 mm in diameter and approximately 1.5 mm in height, carry approximately 0.5 mg of the dried reactant mixture.
It is recognized in the prior art that trehalose will stabilize delicate materials while they are freeze-dried. […]

T1 sequence (P08659 whole entry): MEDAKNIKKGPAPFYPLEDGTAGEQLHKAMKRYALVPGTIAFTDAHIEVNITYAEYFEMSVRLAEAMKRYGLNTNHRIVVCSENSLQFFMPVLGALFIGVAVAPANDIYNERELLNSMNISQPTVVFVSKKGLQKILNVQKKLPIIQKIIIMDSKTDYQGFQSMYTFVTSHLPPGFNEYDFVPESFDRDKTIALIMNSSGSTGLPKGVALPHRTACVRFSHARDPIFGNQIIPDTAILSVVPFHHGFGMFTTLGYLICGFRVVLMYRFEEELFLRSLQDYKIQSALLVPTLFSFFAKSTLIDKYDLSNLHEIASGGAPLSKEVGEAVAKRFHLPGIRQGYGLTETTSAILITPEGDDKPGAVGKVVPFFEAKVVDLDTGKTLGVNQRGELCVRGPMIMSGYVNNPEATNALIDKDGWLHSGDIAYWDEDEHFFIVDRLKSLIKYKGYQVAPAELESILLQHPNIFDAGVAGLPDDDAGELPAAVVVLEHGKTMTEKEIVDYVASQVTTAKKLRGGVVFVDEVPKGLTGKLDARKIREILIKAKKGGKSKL

OC[C@H]1O[C@H](O[C@H]2O[C@H](CO)[C@@H](O)[C@H](O)[C@H]2O)[C@H](O)[C@@H](O)[C@@H]1O [trehalose, a-D-glucopyranosyl-a-D-glucopyranoside]
observed luminescent intensities versus the same loading of reagents without the trehalose (6 mm×1.5 mm reagent disc, total loading approximately 4 mg, FIG. 12): more than twice | biochemical activity of the luciferase component of the reagent mixture (trehalose added to loading solution at levels approaching its saturation solubility): up to a doubling, or more
